Reference: PubChem BioAssay (NCI)
Values joined by “and” are separate entries in the source; they are usually repeats but may differ in a detail not shown here. Identical values can stand only once.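 1) Cells in 96-well plates. 2) Compound, 48 h, 5 concentrations. 3) Linear interpolation between surrounding doses. 4) Unreached endpoint = highest concentration. GI50: concentration for 50% inhibition of growth. TGI marks complete inhibition of growth.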

Legend:
Assay in all cases: inhibition of tumour cell growth, NCI panel, 48 h
HCT-116 colon = test system: HCT-116 colon
MCF7 breast = test system: MCF7 breast
HCC-2998 colon = test system: HCC-2998 colon
HL-60(TB) leukemia = test system: HL-60(TB) leukemia
CCRF-CEM leukemia = test system: CCRF-CEM leukemia
COLO 205 colon = test system: COLO 205 colon
U251 CNS = test system: U251 CNS
T-47D breast = test system: T-47D breast
MALME-3M melanoma = test system: MALME-3M melanoma
NCI-H226 lung = test system: NCI-H226 lung

Cn1cc(-c2cnn3c(N)c(Br)c(C4CCCNC4)nc23)cn1 (configuration not stated)
GI50 (HCT-116 colon): 6.04 µM | TGI (HCT-116 colon): 24.6 µM | GI50 (MCF7 breast): 13.7 µM | TGI (MCF7 breast): > 68.6 µM | GI50 (HCC-2998 colon): 1.02 µM | TGI (HCC-2998 colon): > 42.6 µM | GI50 (HL-60(TB) leukemia): 1.62 µM | TGI (HL-60(TB) leukemia): 35.1 µM | GI50 (CCRF-CEM leukemia): 0.631 µM | TGI (CCRF-CEM leukemia): 38.9 µM | GI50 (COLO 205 colon): 4.54 µM | TGI (COLO 205 colon): 19.8 µM | GI50 (U251 CNS): 20.2 µM | TGI (U251 CNS): > 100 µM | GI50 (T-47D breast): 19.6 µM | TGI (T-47D breast): > 100 µM | GI50 (MALME-3M melanoma): 6.11 µM | TGI (MALME-3M melanoma): 27.1 µM | GI50 (NCI-H226 lung): 13.9 µM | TGI (NCI-H226 lung): > 96 µM

CCCCCCCC/C=C/CCCCCCCC1=NC(C)(C)CN1CCO
GI50 (HCT-116 colon): 1.59 µM | TGI (HCT-116 colon): 2.99 µM | GI50 (MCF7 breast): 1.7 µM | TGI (MCF7 breast): 3.19 µM | GI50 (HCC-2998 colon): 1.7 µM | TGI (HCC-2998 colon): 3.1 µM | GI50 (HL-60(TB) leukemia): 1.74 µM | TGI (HL-60(TB) leukemia): 3.81 µM | GI50 (CCRF-CEM leukemia): 2.22 µM | TGI (CCRF-CEM leukemia): 6.75 µM | GI50 (COLO 205 colon): 1.66 µM | TGI (COLO 205 colon): 3.11 µM | GI50 (U251 CNS): 1.62 µM | TGI (U251 CNS): 2.97 µM | GI50 (T-47D breast): 1.94 µM | TGI (T-47D breast): 4.34 µM | GI50 (MALME-3M melanoma): 1.85 µM | TGI (MALME-3M melanoma): 3.88 µM | GI50 (NCI-H226 lung): 12.6 µM | TGI (NCI-H226 lung): 32.8 µM

c1ccc(CNCCN(CCNCc2ccccn2)Cc2ccc3ccccc3c2)nc1
GI50 (HCT-116 colon): 2.37 µM | TGI (HCT-116 colon): 8.36 µM | GI50 (MCF7 breast): 2.86 µM | TGI (MCF7 breast): 10.5 µM | GI50 (HCC-2998 colon): 1.83 µM | TGI (HCC-2998 colon): 3.39 µM | GI50 (HL-60(TB) leukemia): 2.4 µM | TGI (HL-60(TB) leukemia): 5.77 µM | GI50 (CCRF-CEM leukemia): 3.08 µM | TGI (CCRF-CEM leukemia): 10.3 µM | GI50 (COLO 205 colon): 2.27 µM | TGI (COLO 205 colon): 4.57 µM | GI50 (U251 CNS): 2.47 µM | TGI (U251 CNS): 7.39 µM | GI50 (T-47D breast): 2.59 µM | TGI (T-47D breast): 9.06 µM | GI50 (MALME-3M melanoma): 1.65 µM | TGI (MALME-3M melanoma): 3.63 µM | GI50 (NCI-H226 lung): 1.77 µM | TGI (NCI-H226 lung): 3.53 µM

COc1ccc([C@@]23Oc4cc(OC)cc(OC)c4[C@]2(O)[C@H](O)[C@H](C(N)=O)[C@H]3c2ccccc2)cc1
TGI (HCT-116 colon): 0.488 µM | TGI (MCF7 breast): 0.112 µM | TGI (HCC-2998 colon): 0.0697 µM and 0.0194 µM | GI50 (HL-60(TB) leukemia): < 0.01 µM | TGI (HL-60(TB) leukemia): 0.0785 µM | TGI (CCRF-CEM leukemia): > 100 µM | TGI (COLO 205 colon): 0.0286 µM and 0.0116 µM | TGI (U251 CNS): 0.612 µM and 0.194 µM | TGI (T-47D breast): 0.21 µM and 0.0483 µM | GI50 (MALME-3M melanoma): 0.0161 µM | TGI (MALME-3M melanoma): 0.0909 µM and < 0.01 µM | TGI (NCI-H226 lung): 0.0935 µM and < 0.0283 µM

Nc1ccccc1C(=O)CCC1C(=O)NC(=S)NC1=O
TGI (HCT-116 colon): > 100 µM | TGI (MCF7 breast): > 100 µM | TGI (HCC-2998 colon): > 100 µM | TGI (HL-60(TB) leukemia): > 100 µM | TGI (CCRF-CEM leukemia): > 100 µM | TGI (COLO 205 colon): > 100 µM | TGI (U251 CNS): > 100 µM | TGI (T-47D breast): > 100 µM | TGI (MALME-3M melanoma): > 100 µM | TGI (NCI-H226 lung): > 100 µM
